From article PMC7313537 (PLoS ONE, 2020)

Columns and labels:
Assay in all cases: Broader kinase panel (PerkinElmer)
Type in all cases: biochemical
Details in all cases: 100 nM; read-out: Average Percent Inhibition
PDGFR-alpha (V561D) = target: T1, PDGFR-alpha (V561D) (Homo sapiens, UniProt P16234, V561D)
T1 construct: purchased In-house HTRF panel (56 kinases) and PerkinElmer (161-kinase panel)
Description: (§1) […]. […] […].

Ca MK1a = target: T2, Ca MK1a (Homo sapiens, UniProt Q14012)
T2 construct: purchased In-house HTRF panel (56 kinases) and PerkinElmer (161-kinase panel)
Description: as §1

RSK4 = target: T3, RSK4 (Homo sapiens, UniProt Q9UK32)
T3 construct: purchased In-house HTRF panel (56 kinases) and PerkinElmer (161-kinase panel)
T3 sequence (Q9UK32 whole entry): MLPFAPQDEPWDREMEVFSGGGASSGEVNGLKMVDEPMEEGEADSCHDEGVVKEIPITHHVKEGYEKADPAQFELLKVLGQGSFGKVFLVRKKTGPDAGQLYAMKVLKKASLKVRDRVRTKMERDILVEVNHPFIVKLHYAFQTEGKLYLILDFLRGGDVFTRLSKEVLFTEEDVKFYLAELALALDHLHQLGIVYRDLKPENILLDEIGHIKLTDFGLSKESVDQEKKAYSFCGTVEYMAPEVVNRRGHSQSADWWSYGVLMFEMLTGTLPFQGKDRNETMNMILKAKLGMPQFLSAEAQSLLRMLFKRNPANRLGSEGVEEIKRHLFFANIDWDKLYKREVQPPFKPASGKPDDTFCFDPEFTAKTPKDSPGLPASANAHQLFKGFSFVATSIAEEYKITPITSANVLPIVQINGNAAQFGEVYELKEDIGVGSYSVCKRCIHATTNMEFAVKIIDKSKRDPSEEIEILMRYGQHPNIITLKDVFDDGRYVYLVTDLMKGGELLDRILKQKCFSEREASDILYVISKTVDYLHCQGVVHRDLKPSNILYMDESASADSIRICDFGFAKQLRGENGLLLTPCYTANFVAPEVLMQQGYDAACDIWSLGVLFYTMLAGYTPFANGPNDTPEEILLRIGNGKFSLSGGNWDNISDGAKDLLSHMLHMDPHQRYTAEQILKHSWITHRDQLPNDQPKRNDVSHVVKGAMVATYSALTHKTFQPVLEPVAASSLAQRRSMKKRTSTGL
Description: as §1

MAPKAPK3 = target: T4, MAPKAPK3 (Homo sapiens, UniProt Q16644)
T4 construct: purchased In-house HTRF panel (56 kinases) and PerkinElmer (161-kinase panel)
Description: as §1

BRSK2 = target: T5, BRSK2 (Homo sapiens, UniProt Q8IWQ3)
T5 construct: purchased In-house HTRF panel (56 kinases) and PerkinElmer (161-kinase panel)
Description: as §1

EPHA4 = target: T6, EPHA4 (Homo sapiens, UniProt P54764)
T6 construct: purchased In-house HTRF panel (56 kinases) and PerkinElmer (161-kinase panel)
Description: as §1

AurA = target: T7, AurA (Homo sapiens, UniProt O14965)
T7 construct: purchased In-house HTRF panel (56 kinases) and PerkinElmer (161-kinase panel)
Description: as §1

[1] = target: T8, AMPK-alpha2/beta1/gamma 1 (Homo sapiens, UniProt P54646)
T8 construct: purchased In-house HTRF panel (56 kinases) and PerkinElmer (161-kinase panel)
Description: as §1

EGFR (ErbB1) T790M L858R = target: T9, EGFR (ErbB1) T790M L858R (Homo sapiens, UniProt P00533, L858R/T790M)
T9 construct: purchased In-house HTRF panel (56 kinases) and PerkinElmer (161-kinase panel)
Description: as §1

EPHB1 = target: T10, EPHB1 (Homo sapiens, UniProt P54762)
T10 construct: purchased In-house HTRF panel (56 kinases) and PerkinElmer (161-kinase panel)
Description: as §1

PDGFR BETA = target: T11, PDGFR BETA (Homo sapiens, UniProt P09619)
T11 construct: purchased In-house HTRF panel (56 kinases) and PerkinElmer (161-kinase panel)
Description: as §1

CK1d = target: T12, CK1d (Homo sapiens, UniProt P48730)
T12 construct: purchased In-house HTRF panel (56 kinases) and PerkinElmer (161-kinase panel)
Description: as §1

PRAK = target: T13, PRAK (Homo sapiens, UniProt Q8IW41)
T13 construct: purchased In-house HTRF panel (56 kinases) and PerkinElmer (161-kinase panel)
Description: as §1

RSK2 = RSK2 (Homo sapiens, UniProt P51812)
Description: as §1

MST1 = target: T14, MST1 (Homo sapiens, UniProt Q13043)
T14 construct: purchased In-house HTRF panel (56 kinases) and PerkinElmer (161-kinase panel)
T14 sequence (Q13043 whole entry): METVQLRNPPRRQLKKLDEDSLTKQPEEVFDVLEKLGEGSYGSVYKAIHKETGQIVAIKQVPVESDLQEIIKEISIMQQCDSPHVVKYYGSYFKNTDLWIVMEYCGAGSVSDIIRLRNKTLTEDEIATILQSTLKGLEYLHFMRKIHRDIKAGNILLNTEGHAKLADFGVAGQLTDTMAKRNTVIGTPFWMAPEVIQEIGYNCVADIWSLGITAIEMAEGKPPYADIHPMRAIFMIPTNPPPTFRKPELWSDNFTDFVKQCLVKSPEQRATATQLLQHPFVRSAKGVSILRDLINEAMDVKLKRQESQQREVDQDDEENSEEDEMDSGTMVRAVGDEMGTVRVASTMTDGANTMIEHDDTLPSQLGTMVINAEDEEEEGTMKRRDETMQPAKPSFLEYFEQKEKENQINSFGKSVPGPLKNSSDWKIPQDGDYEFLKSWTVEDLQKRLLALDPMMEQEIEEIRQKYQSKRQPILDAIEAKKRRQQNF
Description: as §1

CDK2 = CDK2 (Homo sapiens, UniProt P24941)
Description: as §1

PKD2 = target: T15, PKD2 (Homo sapiens, UniProt Q9BZL6)
T15 construct: purchased In-house HTRF panel (56 kinases) and PerkinElmer (161-kinase panel)
Description: as §1

Mer = target: T16, Mer (Homo sapiens, UniProt Q12866)
T16 construct: purchased In-house HTRF panel (56 kinases) and PerkinElmer (161-kinase panel)
Description: as §1

BMX = target: T17, BMX (Homo sapiens, UniProt P51813)
T17 construct: purchased In-house HTRF panel (56 kinases) and PerkinElmer (161-kinase panel)
Description: as §1

MINK = MINK (Homo sapiens, UniProt Q8N4C8)
Description: as §1

LYNB = target: T18, LYNB (Homo sapiens, UniProt P07948)
T18 construct: purchased In-house HTRF panel (56 kinases) and PerkinElmer (161-kinase panel)
Description: as §1

ITK = target: T19, ITK (Homo sapiens, UniProt Q08881)
T19 construct: purchased In-house HTRF panel (56 kinases) and PerkinElmer (161-kinase panel)
Description: as §1

DYRK4 = target: T20, DYRK4 (Homo sapiens, UniProt Q9NR20)
T20 construct: purchased In-house HTRF panel (56 kinases) and PerkinElmer (161-kinase panel)
Description: as §1

Abl (T315I) = target: T21, Abl (T315I) (Homo sapiens, UniProt P00519, T315I)
T21 construct: purchased In-house HTRF panel (56 kinases) and PerkinElmer (161-kinase panel)
Description: as §1

CLK2 = target: T22, CLK2 (Homo sapiens, UniProt P49760)
T22 construct: purchased In-house HTRF panel (56 kinases) and PerkinElmer (161-kinase panel)
T22 sequence (P49760 whole entry): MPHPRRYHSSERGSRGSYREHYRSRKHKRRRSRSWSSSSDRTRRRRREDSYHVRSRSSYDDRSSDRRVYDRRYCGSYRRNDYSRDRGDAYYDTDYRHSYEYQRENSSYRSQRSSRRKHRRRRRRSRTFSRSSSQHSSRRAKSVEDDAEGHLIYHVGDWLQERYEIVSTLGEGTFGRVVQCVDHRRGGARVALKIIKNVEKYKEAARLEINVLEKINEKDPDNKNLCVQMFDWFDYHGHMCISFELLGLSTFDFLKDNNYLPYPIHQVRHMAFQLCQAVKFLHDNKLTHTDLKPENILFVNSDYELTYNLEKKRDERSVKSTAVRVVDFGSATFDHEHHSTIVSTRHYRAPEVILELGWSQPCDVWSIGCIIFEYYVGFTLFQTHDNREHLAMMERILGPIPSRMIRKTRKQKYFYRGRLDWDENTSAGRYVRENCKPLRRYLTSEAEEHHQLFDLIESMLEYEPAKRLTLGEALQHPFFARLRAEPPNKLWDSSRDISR
Description: as §1

CHK2 = target: T23, CHK2 (Homo sapiens, UniProt O96017)
T23 construct: purchased In-house HTRF panel (56 kinases) and PerkinElmer (161-kinase panel)
Description: as §1

ROCK2 = target: T24, ROCK2 (Homo sapiens, UniProt O75116)
T24 construct: purchased In-house HTRF panel (56 kinases) and PerkinElmer (161-kinase panel)
T24 sequence (O75116 whole entry): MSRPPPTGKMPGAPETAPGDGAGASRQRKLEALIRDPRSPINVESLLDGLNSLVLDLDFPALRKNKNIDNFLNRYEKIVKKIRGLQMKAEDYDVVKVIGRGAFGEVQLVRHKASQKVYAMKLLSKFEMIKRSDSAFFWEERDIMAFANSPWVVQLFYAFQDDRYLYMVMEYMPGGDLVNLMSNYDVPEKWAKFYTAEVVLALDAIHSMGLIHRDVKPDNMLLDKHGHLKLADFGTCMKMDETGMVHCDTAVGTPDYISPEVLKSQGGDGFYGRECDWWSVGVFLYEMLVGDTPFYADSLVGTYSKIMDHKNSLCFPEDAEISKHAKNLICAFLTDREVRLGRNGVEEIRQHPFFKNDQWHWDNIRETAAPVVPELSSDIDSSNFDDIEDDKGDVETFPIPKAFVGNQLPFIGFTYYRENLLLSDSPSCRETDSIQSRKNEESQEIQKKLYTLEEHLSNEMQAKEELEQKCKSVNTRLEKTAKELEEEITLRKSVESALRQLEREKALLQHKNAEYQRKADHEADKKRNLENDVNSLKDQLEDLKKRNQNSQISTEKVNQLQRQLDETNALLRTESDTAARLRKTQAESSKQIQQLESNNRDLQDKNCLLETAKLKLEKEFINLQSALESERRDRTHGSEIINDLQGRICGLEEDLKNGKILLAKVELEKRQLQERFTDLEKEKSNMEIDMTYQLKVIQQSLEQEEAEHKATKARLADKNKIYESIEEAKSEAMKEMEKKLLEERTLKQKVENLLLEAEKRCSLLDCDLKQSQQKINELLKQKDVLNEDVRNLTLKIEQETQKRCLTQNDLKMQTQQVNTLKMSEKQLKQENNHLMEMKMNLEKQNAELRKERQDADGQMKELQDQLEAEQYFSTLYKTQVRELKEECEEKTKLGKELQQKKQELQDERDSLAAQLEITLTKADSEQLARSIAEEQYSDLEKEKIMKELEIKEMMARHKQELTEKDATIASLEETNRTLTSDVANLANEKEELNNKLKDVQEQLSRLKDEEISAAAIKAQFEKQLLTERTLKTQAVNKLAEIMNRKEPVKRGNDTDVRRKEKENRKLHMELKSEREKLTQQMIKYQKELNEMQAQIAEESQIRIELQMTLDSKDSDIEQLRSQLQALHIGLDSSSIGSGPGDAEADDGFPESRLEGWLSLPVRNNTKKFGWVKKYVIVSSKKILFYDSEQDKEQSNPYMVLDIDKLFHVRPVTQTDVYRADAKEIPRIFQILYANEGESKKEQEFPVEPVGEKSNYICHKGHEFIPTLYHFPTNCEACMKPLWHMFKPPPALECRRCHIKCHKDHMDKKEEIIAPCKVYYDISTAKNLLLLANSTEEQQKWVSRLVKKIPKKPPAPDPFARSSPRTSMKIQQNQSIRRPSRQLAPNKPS
Description: as §1

SYK = SYK (Homo sapiens, UniProt P43405)
Description: as §1

IKK-beta = target: T25, IKK-beta (Homo sapiens, UniProt O14920)
T25 construct: purchased In-house HTRF panel (56 kinases) and PerkinElmer (161-kinase panel)
Description: as §1

MET M1250T = target: T26, MET M1250T (Homo sapiens, UniProt P08581, M1250T)
T26 construct: purchased In-house HTRF panel (56 kinases) and PerkinElmer (161-kinase panel)
Description: as §1

ABL1(E255K) = target: T27, ABL1(E255K) (Homo sapiens, UniProt P00519, E255K)
T27 construct: purchased In-house HTRF panel (56 kinases) and PerkinElmer (161-kinase panel)
Description: as §1

TEC = target: T28, TEC (Homo sapiens, UniProt P42680)
T28 construct: purchased In-house HTRF panel (56 kinases) and PerkinElmer (161-kinase panel)
Description: as §1

TXK = target: T29, TXK (Homo sapiens, UniProt P42681)
T29 construct: purchased In-house HTRF panel (56 kinases) and PerkinElmer (161-kinase panel)
Description: as §1

PRKCI (PKC-iota) = target: T30, PRKCI (PKC-iota) (Homo sapiens, UniProt P41743)
T30 construct: purchased In-house HTRF panel (56 kinases) and PerkinElmer (161-kinase panel)
Description: as §1

FLT3 = FLT3 (Homo sapiens, UniProt P36888)
Description: as §1

PAK3 = target: T31, PAK3 (Homo sapiens, UniProt O75914)
T31 construct: purchased In-house HTRF panel (56 kinases) and PerkinElmer (161-kinase panel)
Description: as §1

PKD1 = target: T32, PKD1 (Homo sapiens, UniProt Q15139)
T32 construct: purchased In-house HTRF panel (56 kinases) and PerkinElmer (161-kinase panel)
T32 sequence (Q15139 whole entry): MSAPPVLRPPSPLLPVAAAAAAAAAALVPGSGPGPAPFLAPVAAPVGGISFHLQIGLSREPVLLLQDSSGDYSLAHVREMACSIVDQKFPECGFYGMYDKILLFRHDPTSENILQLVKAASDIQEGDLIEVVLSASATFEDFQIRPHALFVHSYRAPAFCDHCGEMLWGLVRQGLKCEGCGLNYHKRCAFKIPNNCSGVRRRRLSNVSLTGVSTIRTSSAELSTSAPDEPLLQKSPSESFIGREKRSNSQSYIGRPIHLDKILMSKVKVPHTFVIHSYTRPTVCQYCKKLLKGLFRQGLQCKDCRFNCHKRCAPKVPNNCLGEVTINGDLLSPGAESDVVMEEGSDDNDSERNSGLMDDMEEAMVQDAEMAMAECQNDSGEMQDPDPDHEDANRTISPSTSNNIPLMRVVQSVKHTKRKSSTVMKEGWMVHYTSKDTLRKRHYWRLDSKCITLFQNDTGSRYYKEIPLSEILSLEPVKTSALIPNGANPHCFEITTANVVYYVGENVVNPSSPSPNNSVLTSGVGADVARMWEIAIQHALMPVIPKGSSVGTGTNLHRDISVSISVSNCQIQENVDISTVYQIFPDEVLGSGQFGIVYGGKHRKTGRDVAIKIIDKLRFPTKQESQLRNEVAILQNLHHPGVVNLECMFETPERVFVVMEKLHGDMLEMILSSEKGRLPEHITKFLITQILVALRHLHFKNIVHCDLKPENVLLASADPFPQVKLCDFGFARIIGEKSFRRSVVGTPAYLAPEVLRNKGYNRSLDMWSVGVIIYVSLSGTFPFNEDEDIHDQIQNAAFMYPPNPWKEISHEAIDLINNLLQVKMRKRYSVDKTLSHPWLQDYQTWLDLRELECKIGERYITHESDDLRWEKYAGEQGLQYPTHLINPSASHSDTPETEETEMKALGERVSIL
Description: as §1

Ret (V804L) = target: T33, Ret (V804L) (Homo sapiens, UniProt P07949, V804L)
T33 construct: purchased In-house HTRF panel (56 kinases) and PerkinElmer (161-kinase panel)
Description: as §1

NuaK1 = target: T34, NuaK1 (Homo sapiens, UniProt O60285)
T34 construct: purchased In-house HTRF panel (56 kinases) and PerkinElmer (161-kinase panel)
Description: as §1

CDK5/p25 = target: T35, CDK5/p25 (Homo sapiens, UniProt Q00535)
T35 construct: purchased In-house HTRF panel (56 kinases) and PerkinElmer (161-kinase panel)
Description: as §1

EPHA5 = target: T36, EPHA5 (Homo sapiens, UniProt P54756)
T36 construct: purchased In-house HTRF panel (56 kinases) and PerkinElmer (161-kinase panel)
Description: as §1

FGFR3 = target: T37, FGFR3 (Homo sapiens, UniProt P22607)
T37 construct: purchased In-house HTRF panel (56 kinases) and PerkinElmer (161-kinase panel)
T37 sequence (P22607 23-806): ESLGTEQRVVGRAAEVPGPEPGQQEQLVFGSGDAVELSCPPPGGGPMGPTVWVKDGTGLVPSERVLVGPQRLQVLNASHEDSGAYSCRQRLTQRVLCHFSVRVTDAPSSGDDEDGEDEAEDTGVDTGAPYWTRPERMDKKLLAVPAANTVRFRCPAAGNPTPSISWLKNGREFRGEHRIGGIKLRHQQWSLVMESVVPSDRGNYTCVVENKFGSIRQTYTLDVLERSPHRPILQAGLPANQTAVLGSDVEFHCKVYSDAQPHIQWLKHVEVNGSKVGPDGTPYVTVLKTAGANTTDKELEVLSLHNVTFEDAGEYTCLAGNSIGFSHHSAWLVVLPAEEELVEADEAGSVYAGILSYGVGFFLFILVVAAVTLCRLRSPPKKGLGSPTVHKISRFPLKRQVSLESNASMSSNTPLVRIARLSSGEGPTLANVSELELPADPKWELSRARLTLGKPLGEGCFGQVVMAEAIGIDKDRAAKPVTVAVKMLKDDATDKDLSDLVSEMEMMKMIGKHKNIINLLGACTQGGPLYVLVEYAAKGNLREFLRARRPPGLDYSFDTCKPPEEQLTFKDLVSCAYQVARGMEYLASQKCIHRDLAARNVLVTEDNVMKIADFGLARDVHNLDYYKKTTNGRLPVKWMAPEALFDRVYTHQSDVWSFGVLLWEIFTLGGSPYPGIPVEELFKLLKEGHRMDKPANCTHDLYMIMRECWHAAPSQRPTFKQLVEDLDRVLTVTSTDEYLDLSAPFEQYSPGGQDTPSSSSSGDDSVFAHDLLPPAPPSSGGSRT
Description: as §1

`CCN1C(=O)N(c2c(F)c(OC)cc(OC)c2F)Cc2cnc3[nH]c(CN4CCOCC4)cc3c21` [INCB054828, pemigatinib] showed an inhibition at 0.1 µM (PDGFR-alpha (V561D)) of 1%, an inhibition at 0.1 µM (Ca MK1a) of 3% and an inhibition at 0.1 µM (RSK4) of -1%. It also gave an inhibition at 0.1 µM (MAPKAPK3) of 1%, an inhibition at 0.1 µM (BRSK2) of -2% and an inhibition at 0.1 µM (EPHA4) of 3%. It also gave an inhibition at 0.1 µM (AurA) of 6%, an inhibition at 0.1 µM [1] of 7% and an inhibition at 0.1 µM (EGFR (ErbB1) T790M L858R) of 5%. It also gave an inhibition at 0.1 µM (EPHB1) of 0%, an inhibition at 0.1 µM (PDGFR BETA) of 6% and an inhibition at 0.1 µM (CK1d) of -1%. It also gave an inhibition at 0.1 µM (PRAK) of -2%, an inhibition at 0.1 µM (RSK2) of -2% and an inhibition at 0.1 µM (MST1) of -1%. The inhibition at 0.1 µM (CDK2) was -2%, the inhibition at 0.1 µM (PKD2) was -7% and the inhibition at 0.1 µM (Mer) was -1%. It also gave an inhibition at 0.1 µM (BMX) of 3%, an inhibition at 0.1 µM (MINK) of 2% and an inhibition at 0.1 µM (LYNB) of 9%. The inhibition at 0.1 µM (ITK) was 2%, the inhibition at 0.1 µM (DYRK4) was -4% and the inhibition at 0.1 µM (Abl (T315I)) was 2%. The inhibition at 0.1 µM (CLK2) was -3%, the inhibition at 0.1 µM (CHK2) was 4% and the inhibition at 0.1 µM (ROCK2) was 5%. For the same compound, the inhibition at 0.1 µM (SYK) was -2%, the inhibition at 0.1 µM (IKK-beta) was 4% and the inhibition at 0.1 µM (MET M1250T) was 1%. The inhibition at 0.1 µM (ABL1(E255K)) was 6%, the inhibition at 0.1 µM (TEC) was 19% and the inhibition at 0.1 µM (TXK) was -7%. It also gave an inhibition at 0.1 µM (PRKCI (PKC-iota)) of 3%, an inhibition at 0.1 µM (FLT3) of 0% and an inhibition at 0.1 µM (PAK3) of -2%. The inhibition at 0.1 µM (PKD1) was -3%, the inhibition at 0.1 µM (Ret (V804L)) was 0% and the inhibition at 0.1 µM (NuaK1) was -3%. For the same compound, the inhibition at 0.1 µM (CDK5/p25) was -4%, the inhibition at 0.1 µM (EPHA5) was 2% and the inhibition at 0.1 µM (FGFR3) was 98%.
